Patent US20250339442A1, “METHODS OF TREATMENT USING A DUAL SPECIFICITY TYROSINE-PHOSPHORYLATION-REGULATED KINASE 1A (DYRK1A) INHIBITOR” (Fresh Tracks Therapeutics, Inc., priority 2022, published 2025)
Entries after “also recorded” stand apart in the source; their conditions may differ.

Key:
[1] = test system: PBMCs from subjects with ulcerative colitis; assay: Pro-inflammatory cytokine expression in PBMCs from subjects with ulcerative colitis (cytometric bead array); type: cell-based, human
Description: The anti-inflammatory effect of Compound A in PBMCs from subjects with ulcerative colitis was studied. The expression of pro-inflammatory cytokines IL-1β, IL 6, IL-8, IL-10 and TNF-α was investigated using a cytometric bead array (CBA).

[2] = test system: CD4+ T cells; assay: Differentiation of CD4+ T cells (Th1, Th17, Treg); type: cell-based
Description: Th1 and Th17 cells are main players contributing to organ specific autoimmune disease and inflammation.

[3] = test system: IMQ-induced psoriasis-like inflammation; assay: Imiquimod (IMQ)-induced psoriasis-like dermal inflammation; type: in vivo; settings: BALB/c mice
Description: The anti-inflammatory activity of Compound A in the imiquimod (IMQ)-induced psoriasis-like dermal inflammation in BALB/c mice was investigated.

[4] = test system: house dust-induced atopic dermatitis; assay: House dust-induced atopic dermatitis model; type: in vivo, mice
Description: The potential anti-inflammatory and anti-pruritic effects of Compound A were investigated in a house dust-induced atopic dermatitis model in mice.

[5] = test system: Collagen-Induced Arthritis; assay: Collagen-Induced Arthritis Model; type: in vivo, DBA/1 mice; settings: 60 mg/kg once daily, vs vehicle only treated animals
Description: Furthermore, the efficacy of Compound A in the Collagen-Induced Arthritis Model in DBA/1 mice was tested. Immunization with Type II Chicken Collagen led to the development of arthritis. In comparison with vehicle only treated animals, mice treated once daily with 60 mg/kg Compound A led to a reduction in arthritis index scores, paw measurements, and histopathology scores.

[6] = oral 30 mg/kg/day QD or BID x 21 days, in comparison with controls

SMILES: CCNc1cc(Nc2ccc(C(=O)N3CCC(N4CCOCC4)CC3)cc2OC)nc2[nH]cc(C(F)(F)F)c12 [Compound A, (4-((4-(ethylamino)-3-(trifluoromethyl)-1H-pyrrolo[2,3-b]pyridin-6-yl)amino)-3-methoxyphenyl)(4-morpholinopiperidin-1-yl)methanone]
- expression of pro-inflammatory cytokines IL-1β, IL 6, IL-8, IL-10 and TNF-α [1]: reducing pro inflammatory cytokines in PBMCs; also recorded: statistically significant reduction
- development of Treg cells [2]: enhanced the development of Treg cells; also recorded: enhancing the development of Treg cells
- differentiation of Th1 and Th17 cells [2]: inhibiting the differentiation of Th1 and Th17 cells; also recorded: inhibition of Th1 and Th7 cells
- IMQ-induced psoriasis-like inflammation (ear swelling) ([3]; 45 mg/kg PO BID x 9 days): significantly (p<0.05) protective effects
- IMQ-induced psoriasis-like inflammation (ear swelling) ([3]; 60 mg/kg PO BID x 9 days): significantly (p<0.05) protective effects
- T cell subset levels in the skin (immunohistochemical staining) ([4]; in comparison with vehicle controls and the positive control abrocitinib): decreased all subset levels in the skin
- IL-4 level in the skin [4, 6]: markedly reduced
- IL-13 level in the skin [4, 6]: markedly reduced
- IL-17 level in the skin [4, 6]: markedly reduced
- arthritis index scores [5]: reduction
- histopathology scores [5]: reduction
- paw measurements [5]: reduction
